Key:
[1] = log P by HPLC on reversed-phase column (C 18), EEC Directive 79/831 Annex V.A8; type: physicochemical; conditions: reversed-phase HPLC column (C 18), 40° C., 0.1% aqueous formic acid and acetonitrile
Description: In table 1, the log P values were determined in accordance with EEC Directive 79/831 Annex V.A8 by HPLC (High Performance Liquid Chromatography) on a reversed-phase column (C 18), using the method described below:
Temperature: 40° C.; Mobile phases: 0.1% aqueous formic acid and acetonitrile; linear gradient from 10% acetonitrile to 90% acetonitrile.
Calibration was carried out using unbranched alkan-2-ones (comprising 3 to 16 carbon atoms) with known log P values (determination of the log P values by the retention times using linear interpolation between two successive alkanones). lambda-max-values were determined using UV-spectra from 200 nm to 400 nm and the peak values of the chromatographic signals.

Pyrenophora teres = assay: Pyrenophora teres-test (barley)/preventive; type: in vivo; conditions: preventive, 30 ppm a.i., evaluated 8 days after inoculation
Description: (§1) The commercially available compounds SERENADE-MAX®, SONATA®, active compounds (1 part by weight) solved in N,N-dimethylacetamide (49 parts by weight) and alkylaryl polyglycol ether (1 part by weight), or combinations thereof were diluted with water to the desired concentration.
(§2) To test for preventive activity, young plants are sprayed with the preparation of active compound or active compound combination at the stated rate of application.
After the spray coating has been dried, the plants are sprayed with a spore suspension of Pyrenophora teres. The plants remain for 48 hours in an incubation cabinet at approximately 20° C. and a relative atmospheric humidity of approximately 100%.
(§3) The plants are placed in the greenhouse at a temperature of approximately 20° C. and a relative atmospheric humidity of approximately 80%.
(§4) The test is evaluated 8 days after the inoculation. 0% means an efficacy which corresponds to that of the untreated control, while an efficacy of 100% means that no disease is observed.

Septoria tritici = assay: Septoria tritici-test (wheat)/preventive; type: in vivo; conditions: preventive, 30 ppm a.i., evaluated 21 days after inoculation
Description: as §1, §2
After the spray coating has been dried, the plants are sprayed with a spore suspension of Septoria tritici. The plants remain for 48 hours in an incubation cabinet at approximately 20° C. and a relative atmospheric humidity of approximately 100% and afterwards for 60 hours at approximately 15° C. in a translucent incubation cabinet at a relative atmospheric humidity of approximately 100%.
The plants are placed in the greenhouse at a temperature of approximately 15° C. and a relative atmospheric humidity of approximately 80%.
The test is evaluated 21 days after the inoculation. 0% means an efficacy which corresponds to that of the untreated control, while an efficacy of 100% means that no disease is observed.

Puccinia triticina = assay: Puccinia triticina-test (wheat)/preventive; type: in vivo; conditions: preventive, 30 ppm a.i., evaluated 8 days after inoculation
Description: as §1, §2
After the spray coating has been dried, the plants are sprayed with a spore suspension of Puccinia triticina. The plants remain for 48 hours in an incubation cabinet at approximately 20° C. and a relative atmospheric humidity of approximately 100%.
as §3, §4

| Structure (SMILES) | chromatographic logP [1] | Efficacy in % found (Pyrenophora teres) | Efficacy in % found (Septoria tritici) | Efficacy in % found (Puccinia triticina) |
| --- | --- | --- | --- | --- |
| CC(C)c1ccccc1CN(C(=S)c1c(C(F)F)nn(C)c1F)C1CC1 [A20, N-cyclopropyl-3-(difluoromethyl)-5-fluoro-N-(2-isopropylbenzyl)-1-methyl-1H-pyrazole-4-carbothioamide] | 4.36 | – | – | – |
| CC(C)c1ccc(Cl)cc1CN(C(=O)c1c(C(F)F)nn(C)c1F)C1CC1 [A5, N-(5-chloro-2-isopropylbenzyl)-N-cyclopropyl-3-(difluoromethyl)-5-fluoro-1-methyl-1H-pyrazole-4-carboxamide] | – | 78% | 60% | 67% |
